Data from PMC4136699 (ACS Chemical Biology, 2014).
Where a SMILES comes first, the peptide text is derived from it. The star is where a group is joined. Dansyl = CN(C)c1cccc2c(S(=O)(=O)*)cccc12

What was measured:
[1] = system: CaPFTase; experiment: Continuous fluorescence kinetic assay of dansylated Ds-GCa1a2X peptides; format: biochemical, Candida albicans; details: greater with CaPFTase, Table S4
[2] = target: T1, yPFTase (Saccharomyces cerevisiae, UniProt P22007+P29703); experiment: as above; format: biochemical; details: greater with yPFTase, Table S4
T1 sequence (P22007 1-431): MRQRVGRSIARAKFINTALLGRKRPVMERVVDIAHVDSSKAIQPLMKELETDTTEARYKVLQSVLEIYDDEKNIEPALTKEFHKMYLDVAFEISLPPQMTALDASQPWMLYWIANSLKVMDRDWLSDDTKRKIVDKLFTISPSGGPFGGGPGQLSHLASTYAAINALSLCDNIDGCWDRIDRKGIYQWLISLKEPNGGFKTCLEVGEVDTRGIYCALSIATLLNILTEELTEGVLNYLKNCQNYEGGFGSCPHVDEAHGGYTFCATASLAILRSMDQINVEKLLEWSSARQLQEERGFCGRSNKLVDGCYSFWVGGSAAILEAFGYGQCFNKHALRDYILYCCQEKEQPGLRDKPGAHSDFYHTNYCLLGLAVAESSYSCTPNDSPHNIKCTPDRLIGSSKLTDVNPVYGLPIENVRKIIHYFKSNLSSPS
T1 sequence (P29703 1-316 partner): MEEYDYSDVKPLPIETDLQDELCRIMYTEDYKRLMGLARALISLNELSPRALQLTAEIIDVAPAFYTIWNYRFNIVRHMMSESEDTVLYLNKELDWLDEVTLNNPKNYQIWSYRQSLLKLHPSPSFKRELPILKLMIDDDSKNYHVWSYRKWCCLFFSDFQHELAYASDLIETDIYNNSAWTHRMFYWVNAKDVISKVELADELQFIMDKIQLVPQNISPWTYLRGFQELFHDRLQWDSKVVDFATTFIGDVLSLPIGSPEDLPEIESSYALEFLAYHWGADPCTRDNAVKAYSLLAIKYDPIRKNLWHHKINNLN

kcat/KM of CaPFTase compared with rPFTase [1]	kcat/KM of yPFTase compared with rPFTase [2]	Molecule
6.2 fold		CC(C)[C@H](NC(=O)[C@@H](NC(=O)[C@@H](NC(=O)[C@H](CS)NC(=O)CNS(=O)(=O)c1cccc2c(N(C)C)cccc12)C(C)C)C(C)C)C(=O)O [Ds-GCVVV] (Dansyl-GCVVV-OH)
	11 fold	Ds-GCVTN
